Test results from patent US12589103B2, “Antimicrobial and antiviral effects of C2-C7 alkyl boronic acids” (CORNELL UNIVERSITY, priority 2019, dated 2026).
Entries after “also recorded” stand apart in the source; their conditions may differ.

Key:
[1] = system: AIEC and cancer associated E. coli; assay: Soft agar motility assay, E. coli; type: cell-based; conditions: 10 h, AIEC NC101, 541-1, cancer associated E. coli
Description: (§1) The ability of ABA C1-3 and BA to impact the motility of E. coli and Salmonella was evaluated using sloppy agar treated with and without BA and C1-C3 alkyl boronic acids. Motility is strongly linked to the virulence phenotype of these bacterial strains. E. coli was grown overnight at 37° C. in LB broth. Soft agar plates (1% tryptone, 0.5% NaCl, 0.25% agar) were prepared the day before the assay was carried out. Sterile NaCl (control), boric or boronic acid stock solution was added into the agar right before pouring the plates. The overnight cultures of E. coli were transferred (3 μl) on to the center of each plate, followed by incubation of the plates at 37° C. for 10 h. E. coli motility was quantified by measuring the diameter of the circular swarming area formed by the growing motile bacteria.

[2] = DSS induced colitis in mice; type: in vivo, C57BL mice; conditions: 40 mM in drinking water after DSS (3%)
Description: On the basis of favorable in vivo toxicity tests, the ability of BA and EBA to reduce the severity of inflammation in murine models of microbially driven IBD was tested. The effect of BA and EBA (40 mM) on intestinal inflammation was evaluated in mice with dextran sodium sulfate (“DSS”) induced colitis. The DSS model has a complex etiopathogenesis that involves host-immune and inflammatory responses and the enteric microbiome BA To test their protecting ability to the gastrointestinal tract, boric and ethylboronic acid were given to C57BL mice at 40 mM concentration respectively in drinking water after DSS (3%) treatment. Body weight and fecal samples were taken before and after 6-day treatment. At the 6th day, all mice were euthanized for gross necropsy and histopathology. Intestinal sections were collected and embedded for pathological and FISH analysis. Fecal samples were used for 16s and lipocalin analysis.

[3] = system: AIEC E. coli (541-1, LF82) virulence genes; assay: Virulence gene expression of AIEC (qRT-PCR); type: cell-based; conditions: 30 mM
Description: Total RNA was extracted using the Qiagen RNAProtect-RNeasy Kit per manufacturer's protocol. Total RNA was treated with TURBO DNA-Free Kit (Ambion), followed by a two-step qRT-PCR analysis, using Qiagen's QuantiTect Reverse Transcription Kit and QuantiNova SYBR Green PCR Kit. Each qPCR reaction contained 1 μl of cDNA, 0.7 μl of each forward and reverse primers (10 μM), 5 μL of 2× SYBR Green Master Mix, 1 μl of QN ROX Reference Dye and […] of nuclease-free water to make the total volume of 10 μl. The reaction was run with ABI7000 (Applied Biosystems). […] The relative change of a targeted gene expression was calculated by using the equation RQ=2^−ΔΔCT.

[4] = system: AIEC in murine macrophage J774A.1 cells; assay: Uptake and survival of AIEC in J774A.1 macrophages; type: cell-based, E. coli; conditions: for survival of AIEC in J774A.1 macrophages: 30 mM during infection, 24 h post infection; for uptake of AIEC by J774A.1 macrophages: 30 mM, 1 h
[5] = 8-week toxicity study in mice, drinking water; type: in vivo, C57/B18 mice; conditions: mouse, in vivo
Description: The toxicity of boric and ethylboronic acids were examined with C57/B18 mice. At concentrations of 0, 10, 20, and 40 mM, the two chemicals were given to each group (6 mice) in drinking water. The body weight of each mouse was recorded weekly for 8 weeks, and fecal samples were also collected weekly for 16s sequencing. All animals were sacrificed at the end of 8th week. The length of whole intestine and ileum of each mouse was measured, and sections of the intestine (i. e. small intestine, ileum, cecum, and large intestine) were taken for histopathological and FISH analysis. Fecal samples were used for 16s and lipocalin analysis.
For lipocalin analysis, mouse fecal pellets were collected and frozen at −80 C during toxicity study. To determine lipocalin activity fecal pellets were diluted in microfuge tubes 1/30 with 0.1% Tween20/PBS and vortexed for 20 min at maximum speed. Undissolved particles were removed by centrifuging at 12,000 rpm for 10 min at 4 C. Supernatant was removed and placed into a clean microfuge tube. Lipocalin activity was determined using Mouse Lipocalin-2/NGAL DuoSet ELISA Kit (R&D Systems, DY1857) per manufacturer's instructions.

AIEC E. coli = conditions: complex media lacking ethanolamine or fucose
[6] = system: diarrheagenic E. coli and APEC; assay: Growth of diarrheagenic and APEC E. coli in LB media; type: cell-based; conditions: 30 mM
Description: (§2) The control sample contained 40 mM NaCl.
Diarrheagenic E. coli pathogroups differ by their preferential host colonization sites, virulence mechanisms, and clinical symptoms.

nF-κB = assay: E. coli induced nF-κB activation in HEK-Blue KD-TLR5 cells (SEAP reporter); type: cell-based; conditions: m.o.i 20, SEAP at 24 h
Description: HEK-Blue KD-TLR5 cells were used to detect the promotor activation of nF-κB by E. coli infection with or without boric or boronic acid treatment. nF-κB is the prototypical transcription factor for pro-inflammatory cytokines in epithelium. Briefly, cells were seeded in 96-well plates at a density of 5×10^4 cells per well. E. coli was diluted into fresh cell medium containing either NaCl (Control), boric or boronic acid at an m.o.i of 200 as 10× inocula, followed by addition of this inoculum (10 μl) into each well containing 100 μl of medium for a final m.o.i of 20. At 3 h post infection, the cell medium was carefully removed from each well, and replaced with 100 μl of fresh medium containing gentamycin (200 μg mL^−1). At 24 h post infection, the spent medium was collected, and centrifuged at 12,000 r.p.m. for 5 min to remove any particulate matter. QUANTI-Blue Kit (InvivoGen, San Diego, CA, USA) was used to detect the reporter protein SEAP (secreted alkaline phosphatase) following the manufacturer's instructions.

[7] = system: Feline Infectious Peritonitis Virus (FIPV) Black (TN-406); assay: FIPV replication and syncytium formation, immunofluorescence; type: cell-based, Feline Coronavirus type I; conditions: 10, 20, 30, 40 mM; Feline Lung cells, 18 h post-infection
[8] = target: T1, 3CL protease of the FIP virus (Feline coronavirus, UniProt Q98VG9); conditions: cited from earlier work
T1 construct: 3CL protease of the FIP virus
T1 sequence (Q98VG9 2904-3205): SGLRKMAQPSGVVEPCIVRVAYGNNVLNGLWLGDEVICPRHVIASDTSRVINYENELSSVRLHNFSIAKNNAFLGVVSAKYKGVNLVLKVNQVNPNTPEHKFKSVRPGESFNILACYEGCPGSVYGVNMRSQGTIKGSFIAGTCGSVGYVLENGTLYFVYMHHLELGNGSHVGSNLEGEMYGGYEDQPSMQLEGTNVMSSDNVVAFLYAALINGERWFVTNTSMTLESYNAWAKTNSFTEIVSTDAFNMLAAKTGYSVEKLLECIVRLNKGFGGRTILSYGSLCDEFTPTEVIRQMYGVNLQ

FIPV = conditions: known drugs; cited from earlier work
Salmonella [9] = assay: Soft agar motility assay, Salmonella; type: cell-based; conditions: % motility of the control
Description: as §1

Salmonella [10] = assay: Growth of five Salmonella strains; type: cell-based
Description: as §2

AIEC 541-1 and LF82 = assay: Adhesion and invasion of Caco-2 cells by AIEC; type: cell-based, E. coli; conditions: 30 mM, m.o.i 10, 3 h
Description: E. coli was cultured overnight in LB at 37° C. with shaking. Bacterial pellets were re-suspended in PBS before dilution in cell culture media±30 mM boronic acid or alkyl boronic acid to an m.o.i (multiplicity of infection) of 10. Caco-2 cells were infected with the diluted E. coli for 3 h at 37° C. before washing with PBS, then lysed with 1% Triton X-100. Serial dilutions of the lysates were made in PBS and plated on LB agar. The total number of colonies recovered was used to calculate the number of adherent bacteria. For invasion assays, cells were treated with gentamicin (100 μg mL−1) for one hour after initial infection and 3× wash with PBS to kill extracellular bacteria. Cells were then washed 3× after gentamicin treatment, lysed and plated as described above.

[11] = system: AIEC E. coli isolated from people (MDR and non-MDR strains); assay: Growth of MDR and non-MDR E. coli associated with Crohn's disease; type: cell-based; conditions: 40 mM, LB broth, 48 hrs
Description: (§3) The ability of C1-C3 alkyl boronic acids and BA to impact the growth of MDR E. coli isolated from people and dogs was evaluated using a temperature controlled 96-well multiplate incubator at 37° C. over 48 hrs. Growth in media (LB broth) with and without ABA C2-6 (40 mM) was monitored by readings at OD600 with the AUC of the growth curve calculated.

[12] = system: probiotic Lactobacillus spp; assay: Growth of probiotic Lactobacillus strains; conditions: three Lactobacillus strains
[13] = system: typhoid toxin B subunit (CdtB); type: cell-based, Salmonella typhi
[14] = system: AIEC E. coli from dogs (MDR and non-MDR strains); assay: Growth of MDR and non-MDR E. coli associated with Granulomatous colitis in dogs; type: cell-based; conditions: 40 mM, LB broth, 48 hrs
Description: as §3
Non-MDR strains KD1, KD2, and KD3 were also evaluated.

For `OB(O)O` [BA, Boric acid, reference compound], the “motility of E. coli” value [1] was “had less impact”, the “colon length in DSS colitis versus control mice” value [2] was “significantly different” and the “fecal lipocalin levels in DSS colitis versus control mice” value [2] was “significantly different”. The “intestinal bleeding in DSS colitis” value [2] was “observed”, the “body weight in DSS colitis” value ([2]; 6-day treatment) was “reduced” and the “pduC expression in 541-1” value [3] was “Upregulation”. For the same compound, the “pduC expression in LF-82” value [3] was “Upregulation”, the “survival of AIEC in J774A.1 macrophages” value [4] was “inhibited the survival” and the “uptake of AIEC by J774A.1 macrophages” value [4] was “inhibited the uptake”. The “fecal 16S profiles” value [5] was “not significantly different from control mice”, the “suppression of AIEC growth in complex media” value (AIEC E. coli) was “effective in suppressing AIEC growth” and the “inhibition of growth of diarrheagenic and APEC E. coli” value [6] was “have activity versus the diarrheagenic E. coli and APEC that varies by pathogroup”. The “induction of nF-κB by E. coli” value (nF-κB) was “reduced the induction of nF-κB by E. coli” and the “replication and syncytium formation of FIPV” value [7] was “able to inhibit replication and syncytium formation”.

For `CC(C)C[C@H](NC(=O)OCc1ccccc1)C(=O)N[C@@H](C[C@@H]1CCNC1=O)C(O)S(=O)(=O)[O-].[Na+]` (stereo partly shown) [GC376], the “inhibition of FIP virus 3CL protease” value [8] is given as “inhibited” and the “efficacy against FIPV” value (FIPV) is given as “some efficacy against FIPV”.

With `CCCB(O)O` [PBA] the “motility of Salmonella” value (Salmonella [9]) was “highly effective at blocking motility of Salmonella”, the “motility of E. coli” value [1] was “highly effective at blocking motility of AIEC and cancer associated E. coli” and the “inhibition of growth of Salmonella serovars” value (Salmonella [10]) was “inhibit the growth of multiple serovars of Salmonella more effectively than BA”. The “adhesion and invasion of Caco-2 by AIEC” value (AIEC 541-1 and LF82) was “suppress adhesion and invasion of Caco-2 by AIEC 541-1 and LF82”, the “growth inhibition of Crohn's disease associated AIEC, MDR and non-MDR” value [11] was “more effective than BA over a wider range of AIEC, including MDR and non-MDR strains” and the “growth of probiotic Lactobacillus spp” value [12] was “do not suppress growth”. For the same compound, the “cytotoxicity in antiviral assay” value (Feline Lung cells) was “Cytotoxicity was not observed at antiviral doses”, the “typhoid toxin (CdtB) production” value [13] was “inhibition of toxin production (CdtB)” and the “survival of AIEC in J774A.1 macrophages” value [4] was “inhibited the survival”. For the same compound, the “uptake of AIEC by J774A.1 macrophages” value [4] was “inhibited the uptake”, the “inhibition of growth of diarrheagenic and APEC E. coli” value [6] was “have activity versus the diarrheagenic E. coli and APEC that varies by pathogroup; also recorded: more effective in inhibiting bacterial growth than BA overall” and the “induction of nF-κB by E. coli” value (nF-κB) was “reduced the induction of nF-κB by E. coli”. The “growth inhibition of canine Granulomatous colitis associated AIEC, MDR and non-MDR” value [14] was “more effective than BA over a wider range of AIEC, including MDR and non-MDR strains”, the “replication and syncytium formation of FIPV” value [7] was “inhibited replication and syncytium formation of FIPV in infected cells” and the “degree of cytopathic effect” value (Caco-2 cells) was “EBA<BA<PBA”.
